These results are taken from paper PMC8247773, “Benzohydrazide and Phenylacetamide Scaffolds: New Putative ParE Inhibitors” (Frontiers in Bioengineering and Biotechnology, 2021).

Data set [1] relates to Bacillus subtilis (NCIM 2545). Details: method as in Yele et al., 2020, 2021. To be noted: ref Yele et al., 2020, 2021; cited from earlier work.
Data set [2] has as its system Escherichia coli (NCIM 2567). Further details: method as in Yele et al., 2020, 2021. The settings on record: ref Yele et al., 2020, 2021; cited from earlier work.
The subject of data set [3] is MRSA (ATCC43300). In words: Antibacterial susceptibility test, microbroth dilution MIC. Format: cell-based, methicillin-resistant Staphylococcus aureus. To be noted: mean ± SD; for MIC: Staphylococcus aureus, read-out: Minimum inhibitory concentration.
The test system of data set [4] is Staphylococcus epidermis (NCIM 2493). Details: method as in Yele et al., 2020, 2021. The settings on record: ref Yele et al., 2020, 2021; cited from earlier work.
Data set [5] deals with Pseudomonas aeruginosa (NCIM 2036). Details: method as in Yele et al., 2020, 2021. The settings on record: ref Yele et al., 2020, 2021; cited from earlier work.
Data set [6] deals with E. coli. In words: Post antibiotic effect (PAE). Format: cell-based, Escherichia coli. The settings on record: for Time for 1 log10: untreated control 2 h.
Data set [7] deals with Staphylococcus aureus (NCIM 5022). Details: method as in Yele et al., 2020, 2021. To be noted: ref Yele et al., 2020, 2021; cited from earlier work.
Data set [8] concerns E. coli. In words: Checkerboard synergy with FDA approved drugs. The data set is classed as cell-based, Escherichia coli.
For data set [9], the system named is MRSA (NCIM 5021). In words: Antibacterial susceptibility test, microbroth dilution MIC. The data set is classed as cell-based, methicillin-resistant Staphylococcus aureus. The settings on record: mean ± SD; for MIC: Staphylococcus aureus, read-out: Minimum inhibitory concentration. For orientation: Dilution methods test growth across graded concentrations, often in twofold steps.

Data set [10] relates to Escherichia coli (NCIM 2065). Described as above. Format: cell-based. To be noted: E. Coli (NCIM 2065), mean ± SD; for MIC: Escherichia coli, NCIM2065, read-out: Minimum inhibitory concentration.
In data set [11] the test system is Mycobacterium tuberculosis (NCIM 2984). Further details: method as in Yele et al., 2020, 2021. To be noted: ref Yele et al., 2020, 2021; cited from earlier work.
Data set [12] concerns preformed E. coli biofilm (NCIM 2065). In words: E. coli antibiofilm activity (crystal violet). The data set is classed as cell-based, Escherichia coli. To be noted: 10× MIC, 24 h.
In data set [13] the test system is Klebsiella pneumonia (NCIM 2706). Further details: method as in Yele et al., 2020, 2021. To be noted: ref Yele et al., 2020, 2021; cited from earlier work.
The test system of data set [14] is Vero cells. In words: In vitro cytotoxicity MTT assay. The settings on record: CC50 Vero cells / IC50.
For data set [15], the target named is T1, E. coli ParE enzyme (Escherichia coli, UniProt P20083).
T1 construct: purchased ProFoldin, Hudson, United States
T1 sequence (P20083 whole entry): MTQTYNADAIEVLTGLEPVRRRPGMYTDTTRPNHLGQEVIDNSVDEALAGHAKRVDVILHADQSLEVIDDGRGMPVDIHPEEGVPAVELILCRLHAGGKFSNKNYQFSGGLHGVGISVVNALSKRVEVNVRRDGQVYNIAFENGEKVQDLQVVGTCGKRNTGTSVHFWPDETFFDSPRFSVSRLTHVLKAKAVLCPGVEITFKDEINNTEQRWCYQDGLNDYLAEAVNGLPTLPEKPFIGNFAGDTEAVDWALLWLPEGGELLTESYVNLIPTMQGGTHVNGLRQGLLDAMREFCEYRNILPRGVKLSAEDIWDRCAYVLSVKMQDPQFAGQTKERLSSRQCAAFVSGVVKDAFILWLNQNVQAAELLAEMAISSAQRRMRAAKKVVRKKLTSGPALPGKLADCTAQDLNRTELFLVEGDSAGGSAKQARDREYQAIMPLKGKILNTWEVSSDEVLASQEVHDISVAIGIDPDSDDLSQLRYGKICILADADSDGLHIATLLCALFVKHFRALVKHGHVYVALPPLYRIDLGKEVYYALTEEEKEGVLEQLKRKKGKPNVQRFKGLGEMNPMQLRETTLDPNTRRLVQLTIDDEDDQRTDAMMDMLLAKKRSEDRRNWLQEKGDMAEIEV
T1 sequence (P0AFI2 whole entry, further chain): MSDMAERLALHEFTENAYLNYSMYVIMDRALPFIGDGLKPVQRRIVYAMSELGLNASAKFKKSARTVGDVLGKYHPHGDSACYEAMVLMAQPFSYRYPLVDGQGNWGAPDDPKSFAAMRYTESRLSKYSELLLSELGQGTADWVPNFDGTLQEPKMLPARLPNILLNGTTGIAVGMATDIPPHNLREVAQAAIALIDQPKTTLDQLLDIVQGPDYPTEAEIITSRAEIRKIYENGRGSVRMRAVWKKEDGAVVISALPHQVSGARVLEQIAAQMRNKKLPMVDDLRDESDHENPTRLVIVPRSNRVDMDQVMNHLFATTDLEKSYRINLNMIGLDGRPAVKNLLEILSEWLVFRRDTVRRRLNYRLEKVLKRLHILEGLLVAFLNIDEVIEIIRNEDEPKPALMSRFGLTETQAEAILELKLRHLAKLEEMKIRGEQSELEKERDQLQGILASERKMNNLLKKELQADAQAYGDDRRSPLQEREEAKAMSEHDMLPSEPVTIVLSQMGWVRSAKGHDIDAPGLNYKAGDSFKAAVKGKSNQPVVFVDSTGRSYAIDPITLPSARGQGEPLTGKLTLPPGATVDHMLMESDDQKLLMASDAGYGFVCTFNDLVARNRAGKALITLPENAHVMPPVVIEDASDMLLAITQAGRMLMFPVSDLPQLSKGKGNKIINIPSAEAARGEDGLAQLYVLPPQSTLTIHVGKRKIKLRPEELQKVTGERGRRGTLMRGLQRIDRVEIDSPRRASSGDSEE
In words: E. coli ParE ATPase enzyme inhibition assay (ProFoldin kit, malachite green). The data set is classed as biochemical. The settings on record: ATPase activity, mean ± SD (n = 3); for IC50: read-out: IC50 against E. coli ParE enzyme (converted). The essentials: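 E. coli ParE ATPase activity measured as inorganic phosphate released from ATP hydrolysis in the presence of DNA. Reaction ran 1 h at 37°C, quenched with malachite green dye, absorbance read at 650 nm after 5 min. IC50 from non-linear regression against no-enzyme and no-compound controls.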

Data set [16] deals with Escherichia coli (NCIM 2065). In words: Minimum bactericidal concentration (MBC). To be noted: E. Coli (NCIM 2065); for MBC/MIC: ratio ≤2 bactericidal, ≥4 tolerance. The data set is classed as cell-based. On the procedure:
(§1) MBC can be defined as the minimum concentration of a compound required to kill the bacteria over a fixed period under precise conditions. […] Colonies were counted, and colony forming unit (CFU) per milliliter was calculated.

Data set [17] has as its system Vero cells.
Data set [18] concerns E. coli. In words: Time-kill kinetics. The data set is classed as cell-based, Escherichia coli. To be noted: 0.5× and 1.0× MIC, 0-24 h. The procedure:
Bactericidal activity was evaluated for the compounds by the time-kill kinetics. […] 50 μL aliquot of the culture was inoculated at regular time intervals of 0, 2, 4, 8, 16, and 24 h onto the solidified agar plates, followed by incubation at 37°C for 24 h. Ciprofloxacin is used as a reference throughout the study. CFU was calculated by the colonies formed on the agar plate at each time interval. Time-kill curves were plotted using the CFU/mL of surviving bacteria at each time point in the absence or presence of the compound ([Tsuji et al., 2008]).

The test system of data set [19] is MRSA (NCIM 5021). Put plainly: Minimum bactericidal concentration (MBC). Format: cell-based, methicillin-resistant Staphylococcus aureus. On the procedure: as §1
The subject of data set [20] is MRSA (ATCC43300). Put plainly: Minimum bactericidal concentration (MBC). Format: cell-based, methicillin-resistant Staphylococcus aureus. The procedure:
as §1

A short description of data set [21]: In vitro cytotoxicity MTT assay. To be noted: African green monkey, Vero cells. A general note: Tetrazolium assays rely on reduction of a dye to a coloured formazan, in cell work by metabolically active cells.
The test system of data set [22] is Salmonella typhi (NCIM 2501). Further details: method as in Yele et al., 2020, 2021. To be noted: ref Yele et al., 2020, 2021; cited from earlier work.
The mark [23] stands for this setting: Escherichia coli, NCIM2065, read-out: MBC.
[24] abbreviates: Staphylococcus aureus, read-out: MBC.

Each structure is given as a SMILES string. Converted amounts (≈) assume the structure as drawn. “And” between values parts separate entries of the source, which are not always exact repeats. Identical values can stand only once. Like-named read-outs stand apart in the source and are kept apart here.

With `O=C(O)c1cn(C2CC2)c2cc(N3CCNCC3)c(F)cc2c1=O` [Ciprofloxacin], in [1], the “Minimum inhibitory concentration (MIC) B. s” value is given as 0.81. Further, the “Minimum inhibitory concentration (MIC) E. c” value in data set [2] was 0.97. The MIC is 0.7 ± 0.03 µg/mL (≈ 2.11 µM) in data set [3], 0.67 ± 0.02 µg/mL (≈ 2.02 µM) in [9] and 0.62 ± 0.015 µg/mL (≈ 1.87 µM) in data set [10]. Moreover, the “Minimum inhibitory concentration (MIC) S. e” value in data set [4] was 0.74. In addition, in data set [5], the “Minimum inhibitory concentration (MIC) P. a” value is on record as 0.67. The “PAE = T - C” value in [6] (1 × mic) turned out to be 1 h; in data set [6] (10 × mic) it was 2 h. The “Time for 1 log10” value in data set [6] (1 × mic) was found to be 3 h; in [6] (10 × mic), 4 h. Also, the “Minimum inhibitory concentration (MIC) S. a” value in [7] is 0.68. Further, the “FIC B” value in [8] (FIC of the drug in combination with compound 5) was determined as 0.1556; in data set [8] (FIC of the drug in combination with compound 21), 0.1589. Also, the Inference result in data set [8] (drug combined with compound 5) and in data set [8] (drug combined with compound 21) was “Synergistic (synergistic when the ΣFICs is ≤ 0.5)” throughout. The “ΣFIC A + FIC B” value is reported as 0.3162 in data set [8] (drug combined with compound 5) and 0.3614 in [8] (drug combined with compound 21). Moreover, the “Minimum inhibitory concentration (MIC) M. t” value in [11] is reported as 0.60. Moreover, the reduction in biofilm in data set [12] is on record as 86%. For the same compound, in data set [13], the “Minimum inhibitory concentration (MIC) K. p” value is 0.63.

Take `O=C(COc1ccccc1NC(=O)CCl)Nc1ccc(C(=O)O)cc1Br` [Compound 5]: the “Minimum inhibitory concentration (MIC) B. s” value in data set [1] is listed as 7.82. Moreover, the “Minimum inhibitory concentration (MIC) E. c” value in data set [2] is reported as 8.25. Moreover, the Minimum inhibitory concentration was 0.68 µg/mL and 0.68 ± 0.08 µg/mL in [3]; 0.72 ± 0.05 µg/mL (≈ 1.63 µM) in data set [9]; 0.64 µg/mL and 0.64 ± 0.03 µg/mL in [10]. Besides, the “Minimum inhibitory concentration (MIC) S. e” value in [4] was 5.63. Further, the “SI (CC50/IC50)” value in data set [14] came to 176.4531. For the same compound, in data set [5], the “Minimum inhibitory concentration (MIC) P. a” value was 6.25. Further, the “IC50 against E. coli ParE enzyme” value in data set [15] was found to be 0.35 ± 0.03 µg/mL (≈ 0.792 µM). The MBC (in general, the lowest tested concentration that kills the bacteria rather than only halting them) is 0.64 ± 0.42 µg/mL (≈ 1.45 µM) in [16], 1.54 ± 0.11 µg/mL (≈ 3.49 µM) in [19] and 0.68 ± 0.08 µg/mL (≈ 1.54 µM) in data set [20]. In addition, the MBC/MIC is 1 in data set [16], 2 in data set [19] and 1 in data set [20]. Also, the “PAE = T - C” value in [6] (1 × mic) is reported as 1 h; in data set [6] (10 × mic) it was ~2 h. Further, the “Time for 1 log10” value was found to be 3 h in data set [6] (1 × mic) and 4 h in data set [6] (10 × mic). The “Minimum inhibitory concentration (MIC) S. a” value in [7] was 2.64. Besides, the “Synergy with FDA-approved antibiotics” value in [8] (ciprofloxacin, gentamicin, rifampicin and doxycycline) is listed as “synergized”. In addition, in [17], the CC50 (usually the concentration at which the toxic effect on the cells reaches its halfway point) was 61.7583 µg/mL (≈ 140 µM). In addition, the “Minimum inhibitory concentration (MIC) M. t” value in [11] is given as 0.78. Also, the Time-kill kinetics result in data set [18] is recorded as “bactericidal property”. Besides, in data set [13], the “Minimum inhibitory concentration (MIC) K. p” value is 7.52.

In the case of `O=C(CCl)Nc1ccccc1OCC(=O)Nc1ccc(C(=O)O)cc1[N+](=O)[O-]` [Compound 8], in data set [1], the “Minimum inhibitory concentration (MIC) B. s” value is given as 7.80. Moreover, the “Minimum inhibitory concentration (MIC) E. c” value in data set [2] is recorded as 0.70. Besides, the values for the MIC in [3], in data set [9] and in [10] were 1.06 ± 0.12 µg/mL (≈ 2.6 µM), 0.66 µg/mL (≈ 1.62 µM) and 0.93 ± 0.03 µg/mL (≈ 2.28 µM), respectively. For the same compound, the “Minimum inhibitory concentration (MIC) S. e” value in [4] was 4.83. This compound also had a cytotoxic concentration (CC50) at 48 h in [21] of 257 µg/mL (≈ 630 µM). The “Minimum inhibitory concentration (MIC) P. a” value in data set [5] is reported as 0.69. For the same compound, the IC50 (in general, the point on the concentration scale where inhibition reaches its midpoint) in data set [15] was 662 nM. In addition, the MBC/MIC in [16] is on record as 1; in data set [19], 1; in data set [20], 2. Moreover, the MBC was determined as 0.93 ± 0.03 µg/mL (≈ 2.28 µM) in [16] (setting [23]), 0.63 ± 0.13 µg/mL (≈ 1.55 µM) in data set [19] (setting [24]) and 2.46 ± 0.12 µg/mL (≈ 6.03 µM) in [20] (setting [24]). Further, the “Minimum inhibitory concentration (MIC) S. a” value in [7] is reported as 8.64. Further, in data set [9], the Minimum inhibitory concentration amounted to 0.66 ± 0.13 µg/mL (≈ 1.62 µM). The “Minimum inhibitory concentration (MIC) M. t” value in [11] was 1.38. Further, in data set [22], the “Minimum inhibitory concentration (MIC) S. t” value was 0.72. Besides, the “Minimum inhibitory concentration (MIC) K. p” value in data set [13] was 0.72.

Regarding `O=C(CSc1nc2ccccc2s1)Nc1ccc(C(=O)O)cc1[N+](=O)[O-]` [Compound 25], the “Minimum inhibitory concentration (MIC) B. s” value in [1] is 1.72. In addition, in data set [2], the “Minimum inhibitory concentration (MIC) E. c” value was 3.86. Also, the MIC in [3] was 1.11 ± 0.12 µg/mL (≈ 2.85 µM); in data set [9], 0.86 ± 0.13 µg/mL (≈ 2.21 µM); in data set [10], 0.72 µg/mL (≈ 1.85 µM). In addition, the “Minimum inhibitory concentration (MIC) S. e” value in [4] is reported as 0.79. It took 194 µg/mL (≈ 498 µM) to reach half-maximal cytotoxicity in data set [21] (CC50 at 48 h). In addition, the “Minimum inhibitory concentration (MIC) P. a” value in data set [5] was 2.60. Moreover, in data set [15], the IC50 is 719 nM. For the same compound, the MBC/MIC in data set [16] and in [19] was 3 throughout. In addition, the results for the MBC in data set [16] (setting [23]) and in data set [19] (setting [24]) were 7.09 ± 0.02 µg/mL (≈ 18.2 µM) and 8.37 ± 0.17 µg/mL (≈ 21.5 µM), respectively. The “Minimum inhibitory concentration (MIC) S. a” value in data set [7] is reported as 0.85. Moreover, the Minimum inhibitory concentration in data set [10] was found to be 0.72 ± 0.05 µg/mL (≈ 1.85 µM). In [11], the “Minimum inhibitory concentration (MIC) M. t” value is 5.17. The “Minimum inhibitory concentration (MIC) K. p” value in data set [13] is given as 1.86.
